Measured values as given in ChEMBL document CHEMBL2346508, “Bifunctional inhibition of HIV-1 reverse transcriptase: a first step in designing a bifunctional triphosphate” (Bioorg Med Chem Lett, 2013).
One block for each compound: values may come before it. Calls of active or inactive are those of the source. The rule behind the calls is not given here.

How the values were obtained:
[1] = test system: MT2; assay: Cytotoxicity against human MT2 cells after 5 days by MTT assay; assay type: cell-based; conditions: MT2, 120 h
[2] = test system: Human immunodeficiency virus 1; assay: Antiviral activity against HIV-1 infected un MT2 cells assessed as virus-induced cytopathicity after 5 days by MTT assay; assay type: functional, organism-based; conditions: Human immunodeficiency virus 1, MT2, 120 h
[3] = target: Human immunodeficiency virus type 1 reverse transcriptase (Human immunodeficiency virus 1) (UniProt Q72547); assay: Inhibition of HIV-1 RT assessed as inhibition of annealing of D23/D36 primer/template at 150 uM by polyacrylamide denaturing gel-based incorporation assay

Structure (SMILES): CC(C)=CCN1Cc2c(OCCOCCOCCOCCOC(=O)CCc3cn([C@H]4C=C[C@@H](CO)O4)c(=O)[nH]c3=O)ccc3[nH]c(=S)n(c23)C[C@@H]1C
- IC50 [1]: > 100 µM
- EC50 [2]: 45 µM

- inhibition [3]: inactive
Structure (SMILES): CC(C)=CCN1Cc2c(OCCOCCOCCOCCOCCOCCn3c(=O)ccn([C@H]4C=C[C@@H](COP(=O)(O)OP(=O)(O)OP(=O)(O)O)O4)c3=O)ccc3[nH]c(=S)n(c23)C[C@@H]1C

Structure (SMILES): Cc1cn([C@H]2C=C[C@@H](CO)O2)c(=O)[nH]c1=O [STAVUDINE]
- IC50 [1]: > 100 µM
- EC50 [2]: 2.2 µM

Structure (SMILES): CC(C)=CCN1Cc2c(OCCOCCOCCOCCOCCOCCOCCOCCOC(=O)CCc3cn([C@H]4C=C[C@@H](CO)O4)c(=O)[nH]c3=O)ccc3[nH]c(=S)n(c23)C[C@@H]1C
- IC50 [1]: > 100 µM
- EC50 [2]: 120 µM

Structure (SMILES): CC(C)=CCN1Cc2c(OCCOCCOCCOCCOCCOCCOCCOCCO)ccc([N+](=O)[O-])c2NC[C@@H]1C
- IC50 [1]: > 100 µM
- EC50 [2]: 27 µM

Structure (SMILES): CC(C)=CCN1Cc2c(OCCOCCOCCOCCOCCOCCOC(=O)CCc3cn([C@H]4C=C[C@@H](CO)O4)c(=O)[nH]c3=O)ccc3[nH]c(=S)n(c23)C[C@@H]1C
- IC50 [1]: > 100 µM
- EC50 [2]: 100 µM

Structure (SMILES): CC(C)=CCN1Cc2c(OCCOCCOCCOCCOCCOCCn3c(=O)ccn([C@H]4C=C[C@@H](CO)O4)c3=O)ccc3[nH]c(=S)n(c23)C[C@@H]1C
- IC50 [1]: 38 µM
- EC50 [2]: 20 µM
